Patent US11945813B2, “5-substituted 4-amino-1H-benzo[c][1,2,6]thiadiazine 2,2-dioxides and formulations and uses thereof” (Firmenich Incorporated, priority 2018, dated 2024)

Biological target: T1, T1R2/T1R3 taste receptor (Homo sapiens, UniProt Q8TE23)
T1 sequence (Q8TE23 20-839): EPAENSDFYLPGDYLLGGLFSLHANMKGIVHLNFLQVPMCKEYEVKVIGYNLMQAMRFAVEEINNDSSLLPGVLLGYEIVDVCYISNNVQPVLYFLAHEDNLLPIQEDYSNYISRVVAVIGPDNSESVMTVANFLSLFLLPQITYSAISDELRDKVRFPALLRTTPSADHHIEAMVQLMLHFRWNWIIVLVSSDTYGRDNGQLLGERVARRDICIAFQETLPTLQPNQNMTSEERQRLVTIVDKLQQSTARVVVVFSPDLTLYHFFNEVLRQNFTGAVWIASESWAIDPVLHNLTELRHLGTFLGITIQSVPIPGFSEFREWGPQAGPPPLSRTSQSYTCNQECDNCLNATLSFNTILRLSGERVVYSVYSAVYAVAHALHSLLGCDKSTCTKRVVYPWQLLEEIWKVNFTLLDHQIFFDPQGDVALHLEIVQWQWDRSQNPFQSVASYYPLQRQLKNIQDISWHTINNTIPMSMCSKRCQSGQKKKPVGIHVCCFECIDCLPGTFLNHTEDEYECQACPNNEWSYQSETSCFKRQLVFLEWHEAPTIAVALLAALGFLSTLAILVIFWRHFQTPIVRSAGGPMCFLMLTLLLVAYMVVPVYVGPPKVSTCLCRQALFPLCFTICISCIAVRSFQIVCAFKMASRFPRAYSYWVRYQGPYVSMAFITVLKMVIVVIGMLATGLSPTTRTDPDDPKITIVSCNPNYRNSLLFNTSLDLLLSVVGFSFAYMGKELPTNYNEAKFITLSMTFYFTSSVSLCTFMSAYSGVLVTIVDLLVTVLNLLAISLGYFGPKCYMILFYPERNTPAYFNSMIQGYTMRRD
T1 sequence (Q7RTX0 21-852 partner): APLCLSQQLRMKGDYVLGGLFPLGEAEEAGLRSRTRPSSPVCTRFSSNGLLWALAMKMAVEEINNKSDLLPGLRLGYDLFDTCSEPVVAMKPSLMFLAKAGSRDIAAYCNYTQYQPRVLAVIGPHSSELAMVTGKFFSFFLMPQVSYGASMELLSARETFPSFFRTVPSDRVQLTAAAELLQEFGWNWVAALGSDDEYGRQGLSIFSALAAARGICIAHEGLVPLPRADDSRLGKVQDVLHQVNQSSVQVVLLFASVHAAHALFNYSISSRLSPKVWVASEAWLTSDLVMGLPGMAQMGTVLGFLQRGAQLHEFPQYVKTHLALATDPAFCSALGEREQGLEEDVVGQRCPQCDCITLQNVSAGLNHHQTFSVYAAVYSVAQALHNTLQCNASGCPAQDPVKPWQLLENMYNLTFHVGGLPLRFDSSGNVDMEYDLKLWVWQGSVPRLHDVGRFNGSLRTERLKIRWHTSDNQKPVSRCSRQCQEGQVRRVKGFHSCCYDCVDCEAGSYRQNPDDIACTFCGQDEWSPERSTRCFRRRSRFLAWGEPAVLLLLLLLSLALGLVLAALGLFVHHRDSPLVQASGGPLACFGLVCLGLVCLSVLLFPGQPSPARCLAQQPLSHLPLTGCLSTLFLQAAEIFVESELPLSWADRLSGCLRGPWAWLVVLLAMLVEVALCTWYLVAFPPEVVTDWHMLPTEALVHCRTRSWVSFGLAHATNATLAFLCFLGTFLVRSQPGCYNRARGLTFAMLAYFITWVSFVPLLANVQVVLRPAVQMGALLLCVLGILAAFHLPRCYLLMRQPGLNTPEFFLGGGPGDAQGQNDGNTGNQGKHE
Test: Receptor-based assay: sweetener EC50 alone and with test compound (enhancement ratio)
Assay type: cell-based
Conditions: for Fructose Enhancement EC50 Ratio: sweetener fructose; for Sucralose Enhancement EC50 Ratio: sweetener sucralose; for Sucrose Enhancement EC50 Ratio: sweetener sucrose
Method in brief: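 Sucrose, sucralose or fructose EC50 measured on human T1R2/T1R3, alone and with 3, 10 or 50 μM test compound. Enhancement is the EC50 ratio without/with compound, binned A >20, B 10-20, C >1 to <10.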

| SMILES | Fructose Enhancement EC50 Ratio (10 μM test compound) | Fructose Enhancement EC50 Ratio (50 μM test compound) | Sucralose Enhancement EC50 Ratio (10 μM test compound) | Sucralose Enhancement EC50 Ratio (50 μM test compound) | Sucrose Enhancement EC50 Ratio (3 μM test compound) | Sucrose Enhancement EC50 Ratio (10 μM test compound) | Sucrose Enhancement EC50 Ratio (50 μM test compound) |
| --- | --- | --- | --- | --- | --- | --- | --- |
| NC1=NS(=O)(=O)Nc2cccc(OC[C@H]3CCCN(c4ccc(C(=O)N5CCOCC5)cn4)C3)c21 [Compound 514] | C (A “C” value indicates an enhancement ratio greater than 1 and less than 10) | C (A “C” value indicates an enhancement ratio greater than 1 and less than 10) | A (An “A” value indicates an enhancement ratio of greater than 20) | B (A “B” value indicates an enhancement ratio from 10 to 20) | C (A “C” value indicates an enhancement ratio greater than 1 and less than 10) | C (A “C” value indicates an enhancement ratio greater than 1 and less than 10) | C (A “C” value indicates an enhancement ratio greater than 1 and less than 10) |
| CC(C)CNC(=O)c1ccc(N2CCC[C@H](COc3cccc4c3C(N)=NS(=O)(=O)N4)C2)nc1 [Compound 515] | C (A “C” value indicates an enhancement ratio greater than 1 and less than 10) | C (A “C” value indicates an enhancement ratio greater than 1 and less than 10) | A (An “A” value indicates an enhancement ratio of greater than 20) | A (An “A” value indicates an enhancement ratio of greater than 20) | C (A “C” value indicates an enhancement ratio greater than 1 and less than 10) | C (A “C” value indicates an enhancement ratio greater than 1 and less than 10) | C (A “C” value indicates an enhancement ratio greater than 1 and less than 10) |
| NC1=NS(=O)(=O)Nc2cccc(OC[C@H]3CCCN(c4ccc(C(=O)NCC5CC5)cn4)C3)c21 [Compound 516] | – | C (A “C” value indicates an enhancement ratio greater than 1 and less than 10) | A (An “A” value indicates an enhancement ratio of greater than 20) | A (An “A” value indicates an enhancement ratio of greater than 20) | C (A “C” value indicates an enhancement ratio greater than 1 and less than 10) | C (A “C” value indicates an enhancement ratio greater than 1 and less than 10) | C (A “C” value indicates an enhancement ratio greater than 1 and less than 10) |
| NC1=NS(=O)(=O)Nc2cccc(OC[C@H]3CCCN(c4ccc(C(=O)NCC5CCCCC5)cn4)C3)c21 [Compound 517] | – | – | C (A “C” value indicates an enhancement ratio greater than 1 and less than 10) | B (A “B” value indicates an enhancement ratio from 10 to 20) | C (A “C” value indicates an enhancement ratio greater than 1 and less than 10) | C (A “C” value indicates an enhancement ratio greater than 1 and less than 10) | C (A “C” value indicates an enhancement ratio greater than 1 and less than 10) |
| CNC(=O)c1ccnc(N2CCC[C@H](COc3cccc4c3C(N)=NS(=O)(=O)N4)C2)c1 [Compound 600] | – | – | A (An “A” value indicates an enhancement ratio of greater than 20) | A (An “A” value indicates an enhancement ratio of greater than 20) | C (A “C” value indicates an enhancement ratio greater than 1 and less than 10) | – | B (A “B” value indicates an enhancement ratio from 10 to 20) |
| CCNC(=O)c1ccnc(N2CCC[C@H](COc3cccc4c3C(N)=NS(=O)(=O)N4)C2)c1 [Compound 601] | C (A “C” value indicates an enhancement ratio greater than 1 and less than 10) | C (A “C” value indicates an enhancement ratio greater than 1 and less than 10) | – | – | C (A “C” value indicates an enhancement ratio greater than 1 and less than 10) | C (A “C” value indicates an enhancement ratio greater than 1 and less than 10) | A (An “A” value indicates an enhancement ratio of greater than 20) |
| CCCNC(=O)c1ccnc(N2CCC[C@H](COc3cccc4c3C(N)=NS(=O)(=O)N4)C2)c1 [Compound 602] | C (A “C” value indicates an enhancement ratio greater than 1 and less than 10) | C (A “C” value indicates an enhancement ratio greater than 1 and less than 10) | A (An “A” value indicates an enhancement ratio of greater than 20) | A (An “A” value indicates an enhancement ratio of greater than 20) | C (A “C” value indicates an enhancement ratio greater than 1 and less than 10) | B (A “B” value indicates an enhancement ratio from 10 to 20) | – |
| NC1=NS(=O)(=O)Nc2cccc(OC[C@H]3CCCN(c4cc(C(=O)NCCO)ccn4)C3)c21 [Compound 603] | C (A “C” value indicates an enhancement ratio greater than 1 and less than 10) | C (A “C” value indicates an enhancement ratio greater than 1 and less than 10) | A (An “A” value indicates an enhancement ratio of greater than 20) | – | C (A “C” value indicates an enhancement ratio greater than 1 and less than 10) | B (A “B” value indicates an enhancement ratio from 10 to 20) | C (A “C” value indicates an enhancement ratio greater than 1 and less than 10) |
| COCCNC(=O)c1ccnc(N2CCC[C@H](COc3cccc4c3C(N)=NS(=O)(=O)N4)C2)c1 [Compound 604] | – | C (A “C” value indicates an enhancement ratio greater than 1 and less than 10) | A (An “A” value indicates an enhancement ratio of greater than 20) | – | – | – | B (A “B” value indicates an enhancement ratio from 10 to 20) |
| CN(C)CCNC(=O)c1ccnc(N2CCC[C@H](COc3cccc4c3C(N)=NS(=O)(=O)N4)C2)c1 [Compound 605] | C (A “C” value indicates an enhancement ratio greater than 1 and less than 10) | C (A “C” value indicates an enhancement ratio greater than 1 and less than 10) | A (An “A” value indicates an enhancement ratio of greater than 20) | A (An “A” value indicates an enhancement ratio of greater than 20) | C (A “C” value indicates an enhancement ratio greater than 1 and less than 10) | C (A “C” value indicates an enhancement ratio greater than 1 and less than 10) | B (A “B” value indicates an enhancement ratio from 10 to 20) |
| CC(C)NC(=O)c1ccnc(N2CCC[C@H](COc3cccc4c3C(N)=NS(=O)(=O)N4)C2)c1 [Compound 606] | C (A “C” value indicates an enhancement ratio greater than 1 and less than 10) | C (A “C” value indicates an enhancement ratio greater than 1 and less than 10) | A (An “A” value indicates an enhancement ratio of greater than 20) | A (An “A” value indicates an enhancement ratio of greater than 20) | C (A “C” value indicates an enhancement ratio greater than 1 and less than 10) | B (A “B” value indicates an enhancement ratio from 10 to 20) | C (A “C” value indicates an enhancement ratio greater than 1 and less than 10) |
